These results are taken from patent US6071907A, “Tricyclic compounds useful as FPT inhibitors” (Schering Corporation, priority 1997, dated 2000).

Read-outs that look alike come from different tables or passages of the source.

In the assay the target is T1, partially purified rat brain farnesyl protein transferase (FPT) (Rattus norvegicus, UniProt Q02293+Q04631).
T1 construct: partially purified rat brain farnesyl protein transferase (FPT); from tissue; host or cells: rat brain (partially purified enzyme)
Put plainly: FPT IC50 (inhibition of farnesyl protein transferase, in vitro enzyme assay); Ras-CVLS farnesylation. Format: biochemical. The procedure:
In vitro enzyme assays: FPT IC50 (inhibition of farnesyl protein transferase, in vitro enzyme assay) are determined by the methods disclosed in […] or WO 95/10516.

Where [1] appears, read: in vitro enzyme assay, Ras-CVLS farnesylation, partially purified rat brain FPT, read-out: FPT IC50.

Consider `CCC1Cc2cc(Cl)cc(Cl)c2C(N2CCN(C(=O)Cc3cc[n+]([O-])cc3)CC2)c2ncc(Br)cc21` (racemic) [Example 3], for which the IC50 stood at 6 nM.

As for `O=C(CN1C(=O)c2ccccc2C1=O)N1CCC(C2c3ncc(Br)cc3CCc3cc(Cl)cc(Cl)c32)CC1` (single isomer, unassigned; (+)) [Example 4, (+)-4-(3-bromo-8,10-dichloro-6,11-dihydro-5H-benzo[5,6]cyclohepta[1,2-b]pyridin-11-yl)-1-[2-(1,3-dihydro-1,3-dioxo-2H-isoindol-2-yl)-1-oxoethyl]piperidine], the IC50 under setting [1] came out at 18.6 nM.

For `O=C(CN1CC[S+]([O-])CC1)N1CCC(C2c3ccc(Cl)c(Br)c3CCc3cc(Br)cnc32)CC1` (centres unmarked) [Example 2, 4-[8-Chloro-3,7-dibromo-6,11-dihydro-5H-benzo[5,6]cyclohepta[1,2-b]pyridin-11-yl]-1-(4-thiomorpholinylacetyl)piperidine S-oxide], under setting [1], the IC50 is 6.8 nM.

Regarding `CCC(=O)N1CCC(CC(=O)N2CCC([C@H]3c4ncc(Br)cc4CCc4cc(Cl)cc(Br)c43)CC2)CC1` [Example 5, (+)-4-(3,10-Dibromo-8-chloro-6,11-dihydro-5H-benzo[5,6]cyclohepta[1,2-b]pyridin-11 (R)-yl)-1-[(1-oxopropyl-4-piperidinyl)acetyl]piperidine], the IC50 under setting [1] came out at 6.8 nM.

For the compound `O=C(CN1CCSCC1)N1CCC(C2c3ccc(Cl)c(Br)c3CCc3cc(Br)cnc32)CC1` (centres unmarked) [Example 1, 4-[8-Chloro-3,7-dibromo-5,6-dihydro-11H-benzo [5, 6]cyclohepta[1,2-b]pyridin-11-yl]-1-(4-thiomorpholinylacetyl)piperidine], under setting [1], the IC50 is 8.9 nM.

The IC50 is the concentration needed to halve the response being measured.
